Measured values reported in paper PMC7932537, “Quantitative profiling of protease specificity” (PLoS Computational Biology, 2021).

Tested on: MMP-2
Assay: Substrate phage display with NGS: relative probability (RP) of P3-P1' tetramer clusters;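 as to relative probability (RP): ratio of tetramer probability after protease selection to that in naive phage library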
Assay type: biochemical, human
Conditions: MMP2 - no binning; average relative probability (RP) of the P3-P1' tetramer; redundant tetramers have been averaged out

Substance	avg_RP
PLDM	20.8822
PSRI	23.675
PSLI	16.6444
MQRL	9.3428
PRWI	30.8879
AQHI	7.3783
PWGL	31.3204
TWSM	0
TAWL	24.7743
PERL	16.3826
GWDL	0
PYFL	19.1471
VKFL	9.5539
PLSW	31.2944
GHNL	0.2721
PAHL	34.5554
NARL	12.6743
ALAM	20.8553
PMSL	32.4868

Substance	avg_RP
LLHL	16.5808
HLNI	0.0853
VRFM	15.2846
PQAV	23.1021
ANMI	1.6014
VHAL	19.753
AQEL	0.1876
GWRL	0.1031
LMAL	15.4189
MQNL	23.8708
AENL	6.7504
VLFL	1.6486
SLRL	0
YRFM	0
VRNL	29.2567
YAWM	14.9473
PMNL	32.5586
AHAL	27.1646
PFMI	4.6361

Same assay, conditions: MMP2 - no binning; average relative probability of the P3-P1' tetramer; redundant tetramers have been averaged out

Substance	avg_RP
PFFM	3.5092
FRML	0.2112
WLPI	0.6666
YRGL	5.4447
TLNL	2.7643
YGEL	16.6627
PDFL	1.02
PYML	24.9477
HYSL	0.1694
WHNM	0
ASFL	10.8605
LDLL	0.0715
ASNL	28.7368
HMRL	0.0574
FRSM	5.3885
YMNI	0
MASL [P3-P1' tetramer cluster]	31.6834
PYTL	16.827
ISHL	30.7015
PNYI	6.6891
VWYL	3.6672

Substance	avg_RP
VHRL	1.5304
VYML	5.0943
VWNI	4.0144
YAYI	1.7086
YLPM	0.4306
FAAL	18.8584
PWFL	12.628
AQAL	22.7358
PHLL	16.4802
VWLL	0.5351
PFYM	8.1842
VHQM	0
AWGL	17.7408
VYSL	16.838
MWHL	0.2013
PIPL	33.1236
PHWL	28.844
LRWW	6.3129
IQTM	7.1082
VHSF	0.0855
SFNL	1.0952

Substance	avg_RP
ARQL	3.2139
ALAL	22.1184
SGSL	7.2251
VSEL	24.0996
TQHL	2.9223
PLTI	16.7446
VMLL	0.4692
AISM	11.4166
LTHL	4.2994
FQSL	13.5551
LRQM	8.6765
GNSL	0.2884
ALHL	14.6488
GNRL	0.0463
PLNW	28.8158
AQML	8.608
AYHM	3.7603
VKHL	14.8595
ASGL	25.6721
PKQL	26.0949
PRAW	34.1791

Same assay, conditions: MMP2 - no binning; average relative probability of the tetramer; redundant tetramers averaged out

Substance	avg_RP
AWSL	7.006
AYHL	15.3364
PYSL	30.7259
PFML	19.624
PSGW	32.6048
WAHI	0.0575
PRGS	16.3331
AMGL	23.7576
PKNQ	13.2723
HFHL	0.0941
WASI	12.5247
PNYL	17.2533
PWSV	0.3793
VWML	1.4023
MESL	8.7752
VRAI	26.2338
VRLL	4.002
ARAM	25.2992
VMNY	12.7895
TRWY	6.7229
YNHL	3.693
PFLL	9.0855
SHGL	0.2009
PQMI	16.6558
PNFL	15.743
AHGL	23.6336
VRDL	21.7219

Substance	avg_RP
PLVY	0.5489
AWNL	14.0049
SLNL	3.3019
ATAL	22.9481
VRNV	5.0406
PSTL	30.1803
IRYL	17.8741
VEAL	10.756
PSGF	31.2448
VWNY	4.6964
WRAF	9.8395
PYPL	30.8058
VRGM	26.4376
PMNV	12.9651
PRGN	16.6168
VRFL	15.0438
PVHM	25.8779
PFKY	2.0624
FSHL	16.5216
TQNL	7.2378
FRHL	3.942
PIEL	20.545
VYWM	12.492
PEFL	12.0159
PRFI	22.3274
VAYL	26.5348
ALNF	9.2594

Same assay, conditions: tetramer annotation of MMP-2 cleavage sites in physiologic substrates from MEROPS

Substance	relative probability (RP)
FSRI	0.35

Same assay, conditions: tetramer clusters unique to the MMP-2 selectome, MMP-2 RP

Substance	relative_probability
MASL [P3-P1' tetramer cluster]	31.68
LGEL [P3-P1' tetramer cluster]	29.44
VANW [P3-P1' tetramer cluster]	29.92
LANI [P3-P1' tetramer cluster]	29.81
HANL [P3-P1' tetramer cluster]	30.86

Same assay, conditions: tetramer projected onto MMP-2 cleavage sites determined by Prudova et al. (2010)

Substance	relative probability (RP)
PRNL [P3-P1' tetramer cluster]	35.13

Molecular target: T1, MMP-2 (Homo sapiens, UniProt P08253)
T1 sequence (P08253 110-660): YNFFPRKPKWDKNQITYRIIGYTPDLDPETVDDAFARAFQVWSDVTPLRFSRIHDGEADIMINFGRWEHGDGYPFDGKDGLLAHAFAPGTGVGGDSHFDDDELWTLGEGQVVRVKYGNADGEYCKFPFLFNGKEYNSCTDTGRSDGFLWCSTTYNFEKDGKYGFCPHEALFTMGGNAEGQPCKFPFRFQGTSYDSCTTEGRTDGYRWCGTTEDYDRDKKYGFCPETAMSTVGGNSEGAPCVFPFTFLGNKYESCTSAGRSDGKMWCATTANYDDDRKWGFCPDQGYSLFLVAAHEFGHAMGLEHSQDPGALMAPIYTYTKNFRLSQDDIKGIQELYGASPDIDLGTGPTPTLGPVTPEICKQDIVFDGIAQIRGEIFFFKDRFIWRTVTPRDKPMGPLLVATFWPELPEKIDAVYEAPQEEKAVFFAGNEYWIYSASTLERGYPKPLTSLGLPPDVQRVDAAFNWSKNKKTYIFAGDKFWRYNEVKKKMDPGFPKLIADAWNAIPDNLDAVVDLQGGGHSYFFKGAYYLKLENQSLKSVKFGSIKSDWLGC
Assay: K(obs) of individual phage substrates (set of 1369)
Assay type: biochemical
Conditions: MMP2; individual phage substrate from the set of 1369 peptides; cleavage position marked by the dash in the sequence

Kobs [M⁻¹ s⁻¹]	Substance
12792.1	KAPLK-LTASG
12792.1	GSPLD-LKTAS
12792.1	PSPRY-LTASG
726.013	GGSGA-YTMVA
12792.1	VNVRN-LTASG
1465.65	SGANY-IRATA
231.616	GDVRH-IFTAS
0	SGVWP-LVKTA
12792.1	KPVSA-LTASG
619.843	DLPHC-LTASG
10866.7	KVLAS-LTASG

Same assay, conditions: MMP2; individual phage substrates, set of 1369 peptides; cleavage position marked by '-' in the sequence

Kobs [M⁻¹ s⁻¹]	Substance
10866.7	TRPQH-LTASG
0	SGPLA-STVTA
6131.32	GKPLP-WTASG
2157.02	SGAYS-LRVTA
12792.1	LVVAA-LTASG
12792.1	VPPMP-LTASG
0	GHPWL-QRTAS
12792.1	PSPRA-ITASG
8941.32	RVLSR-LTASG
12792.1	GRPLQ-YRTAS
27.918	RPAQD-LTASG
0	GGSGA-LQVPT
10866.7	HGPMS-LTASG
619.843	GSALA-LTTAS
0	GGSGQ-LLLRN
0	SGAMN-LTLTA
12792.1	GTPLG-QITAS

Molecular target: MMP-9 (Homo sapiens, UniProt P14780)
Assay: as above
Assay type: biochemical
Conditions: MMP9; individual phage substrates, set of 1369 peptides; '-' marks the cleavage position (P1-P1')

Chain of MMP-9 (P14780 94-707): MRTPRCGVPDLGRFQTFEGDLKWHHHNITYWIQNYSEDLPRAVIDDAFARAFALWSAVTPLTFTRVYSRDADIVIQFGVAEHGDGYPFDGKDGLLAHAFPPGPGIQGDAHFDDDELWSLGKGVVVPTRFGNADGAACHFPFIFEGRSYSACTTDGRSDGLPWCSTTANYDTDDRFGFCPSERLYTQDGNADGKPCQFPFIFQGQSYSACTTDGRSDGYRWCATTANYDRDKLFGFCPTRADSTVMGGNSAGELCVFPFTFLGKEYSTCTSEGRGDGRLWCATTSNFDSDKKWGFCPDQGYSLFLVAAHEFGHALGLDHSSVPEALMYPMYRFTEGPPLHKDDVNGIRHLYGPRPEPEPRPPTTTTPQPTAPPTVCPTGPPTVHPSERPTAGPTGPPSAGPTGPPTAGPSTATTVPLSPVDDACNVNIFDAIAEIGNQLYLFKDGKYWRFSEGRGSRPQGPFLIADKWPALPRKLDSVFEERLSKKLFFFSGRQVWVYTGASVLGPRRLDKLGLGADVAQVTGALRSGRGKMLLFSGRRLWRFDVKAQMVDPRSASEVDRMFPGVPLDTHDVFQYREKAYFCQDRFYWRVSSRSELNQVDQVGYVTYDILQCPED

Kobs [M⁻¹ s⁻¹]	Substance
7815.03	TRPQH-LTASG
3741.87	SGPLA-STVTA
5889.62	GKPLP-WTASG
5090.5	SGAYS-LRVTA
12792.1	LVVAA-LTASG
12792.1	VPPMP-LTASG
56.119	GHPWL-QRTAS
12792.1	PSPRA-ITASG
0	RVLSR-LTASG
10866.7	GRPLQ-YRTAS
231.616	RPAQD-LTASG
56.119	GGSGA-LQVPT
10866.7	HGPMS-LTASG
1196.62	GSALA-LTTAS
0	GGSGQ-LLLRN
0	SGAMN-LTLTA
5461.43	GTPLG-QITAS

Same assay, conditions: MMP9; individual phage substrates, set of 1369 peptides; dash in sequence marks cleavage position

Kobs [M⁻¹ s⁻¹]	Substance
12792.1	KAPLK-LTASG
8941.32	GSPLD-LKTAS
10866.7	PSPRY-LTASG
551.253	GGSGA-YTMVA
5269.78	VNVRN-LTASG
418.952	SGANY-IRATA
261.974	GDVRH-IFTAS
0	SGVWP-LVKTA
551.253	KPVSA-LTASG
355.093	DLPHC-LTASG
0	KVLAS-LTASG
